Reference: PubChem BioAssay AID256 (DTP/NCI, 2004)
Several values for one entry are separate records, joined by “and”; a condition that tells them apart may be missing. Equal values may be shown once. Toxic doses and inconclusive results are not listed. How the source made its calls: active means survival T/C of 150% or more; inactive means T/C below 125% in these data.

Tested on: CD2F1 mice, L1210 leukemia ip, survival T/C
Experiment: NCI In Vivo Anticancer Drug Screen. Data for tumor model L1210 Leukemia (intraperitoneal) in CD2F1 (CDF1) mice
Conditions: higher = longer survival
Summary of the method: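 Vehicle-treated tumor-bearing mice served as controls (C) for compound-treated mice (T). Reported figure is T divided by C.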

[1] = endpoint: mean survival time, dose: 100.0 mg/kg/injection, schedule: Q04DX003 (ip), vehicle: saline with Tween-80
[2] = endpoint: mean survival time, dose: 200.0 mg/kg/injection, schedule: Q04DX003 (ip), vehicle: saline with Tween-80
[3] = endpoint: mean survival time, dose: 400.0 mg/kg/injection, schedule: Q04DX003 (ip), vehicle: saline with Tween-80
[4] = endpoint: mean survival time, dose: 12.5 mg/kg/injection, schedule: Q01DX009 (ip), vehicle: saline with Tween-80
[5] = endpoint: mean survival time, dose: 100.0 mg/kg/injection, schedule: Q01DX009 (ip), vehicle: saline with Tween-80
[6] = endpoint: mean survival time, dose: 200.0 mg/kg/injection, schedule: Q01DX009 (ip), vehicle: saline with Tween-80
[7] = endpoint: mean survival time, dose: 400.0 mg/kg/injection, schedule: Q01DX009 (ip), vehicle: saline with Tween-80

Measured: T/C

COP(=O)(OC)OCC1OC(n2ccc(N)nc2=O)C(O)C1O (stereo unspecified)
inactive: endpoint: median survival time, dose: 12.5 mg/kg/injection, schedule: Q01DX005 (ip), vehicle: saline 111 % of control | endpoint: median survival time, dose: 25.0 mg/kg/injection, schedule: Q01DX005 (ip), vehicle: saline 104 % of control | endpoint: median survival time, dose: 50.0 mg/kg/injection, schedule: Q01DX005 (ip), vehicle: saline 110 % of control | endpoint: median survival time, dose: 100.0 mg/kg/injection, schedule: Q01DX005 (ip), vehicle: saline 115 % of control and 108 % of control | endpoint: median survival time, dose: 200.0 mg/kg/injection, schedule: Q01DX005 (ip), vehicle: saline 113 % of control

COc1cc2c(c(OC)c1OC)-c1ccc(SC)c(=O)cc1C(NC(=S)NC1OC(COC(C)=O)C(OC(C)=O)C(OC(C)=O)C1OC(C)=O)CC2 (stereo unspecified)
inactive: endpoint: mean survival time, dose: 50.0 mg/kg/injection, schedule: Q01DX009 (ip), vehicle: Klucel (hydroxypropylcellulose) (HPC) 86 % of control | endpoint: mean survival time, dose: 100.0 mg/kg/injection, schedule: Q01DX009 (ip), vehicle: Klucel (hydroxypropylcellulose) (HPC) 89 % of control | endpoint: mean survival time, dose: 200.0 mg/kg/injection, schedule: Q01DX009 (ip), vehicle: Klucel (hydroxypropylcellulose) (HPC) 101 % of control

NCCc1nc[nH]c1[N+](=O)[O-]
inactive: endpoint: mean survival time, dose: 12.5 mg/kg/injection, schedule: Q01DX005 (ip), vehicle: water 106 % of control | endpoint: mean survival time, dose: 25.0 mg/kg/injection, schedule: Q01DX005 (ip), vehicle: water 97 % of control | endpoint: mean survival time, dose: 50.0 mg/kg/injection, schedule: Q01DX005 (ip), vehicle: water 97 % of control | endpoint: mean survival time, dose: 100.0 mg/kg/injection, schedule: Q01DX005 (ip), vehicle: water 103 % of control | endpoint: mean survival time, dose: 200.0 mg/kg/injection, schedule: Q01DX005 (ip), vehicle: water 92 % of control

CSc1cc(C)c(O)c(C)c1
inactive: [1] 100 % of control | [2] 104 % of control | [3] 102 % of control

Cc1c(N)nc([C@H](CC(N)=O)NC[C@H](N)C(N)=O)nc1C(=O)N[C@H](C(=O)N[C@H](C)[C@@H](O)CC(=O)N[C@H](C(=O)NC(O[C@@H]1O[C@@H](C)[C@@H](N)[C@@H](O)[C@H]1O)C(O)c1nc(-c2nc(C(=O)NCCCCN)cs2)cs1)[C@@H](C)O)[C@@H](O[C@@H]1O[C@@H](CO)[C@@H](O)[C@H](O)[C@@H]1O[C@H]1O[C@H](CO)[C@@H](O)[C@H](OC(N)=O)[C@@H]1O)c1c[nH]cn1 (stereo partly specified)
inactive: endpoint: median survival time, dose: 1.0 mg/kg/injection, schedule: Q01DX009 (ip), vehicle: saline 106 % of control | endpoint: median survival time, dose: 2.0 mg/kg/injection, schedule: Q01DX009 (ip), vehicle: saline 112 % of control | endpoint: median survival time, dose: 4.0 mg/kg/injection, schedule: Q01DX009 (ip), vehicle: saline 119 % of control | endpoint: median survival time, dose: 8.0 mg/kg/injection, schedule: Q01DX009 (ip), vehicle: saline 118 % of control | endpoint: median survival time, dose: 16.0 mg/kg/injection, schedule: Q01DX009 (ip), vehicle: saline 120 % of control | endpoint: median survival time, dose: 32.0 mg/kg/injection, schedule: Q01DX009 (ip), vehicle: saline 108 % of control

c1ccc(-c2cc(-c3ccccc3)[o+]c(-c3ccccc3)c2)cc1
inactive: endpoint: mean survival time, dose: 3.13 mg/kg/injection, schedule: Q01DX009 (ip), vehicle: saline with Tween-80 100 % of control | endpoint: mean survival time, dose: 3.13 mg/kg/injection, schedule: Q04DX003 (ip), vehicle: saline 101 % of control | endpoint: mean survival time, dose: 6.25 mg/kg/injection, schedule: Q01DX009 (ip), vehicle: saline with Tween-80 100 % of control | endpoint: mean survival time, dose: 6.25 mg/kg/injection, schedule: Q04DX003 (ip), vehicle: saline 98 % of control | [4] 97 % of control | endpoint: mean survival time, dose: 12.5 mg/kg/injection, schedule: Q04DX003 (ip), vehicle: saline 104 % of control | [1] 95 % of control

CCOc1nc(OCC)nc(-c2cccn2-c2ccccc2)n1
inactive: [5] 95 % of control | [1] 106 % of control | [6] 87 % of control | [2] 100 % of control | [7] 93 % of control | [3] 98 % of control

O=C1C=CC(=O)N1c1ccc(Cl)cc1[N+](=O)[O-]
inactive: endpoint: mean survival time, dose: 6.25 mg/kg/injection, schedule: Q04DX003 (ip), vehicle: saline with Tween-80 98 % of control | [4] 97 % of control | endpoint: mean survival time, dose: 12.5 mg/kg/injection, schedule: Q04DX003 (ip), vehicle: saline with Tween-80 101 % of control | endpoint: mean survival time, dose: 25.0 mg/kg/injection, schedule: Q01DX009 (ip), vehicle: saline with Tween-80 96 % of control | endpoint: mean survival time, dose: 25.0 mg/kg/injection, schedule: Q04DX003 (ip), vehicle: saline with Tween-80 98 % of control

CC(c1ccccc1)N1CCCOP1(=O)N(CCCl)CCCl (stereo unspecified)
inactive: endpoint: mean survival time, dose: 6.25 mg/kg/injection, schedule: Q01DX009 (ip), vehicle: other 103 % of control | endpoint: mean survival time, dose: 12.5 mg/kg/injection, schedule: Q01DX009 (ip), vehicle: other 103 % of control and 94 % of control | endpoint: mean survival time, dose: 25.0 mg/kg/injection, schedule: Q01DX009 (ip), vehicle: other 98 % of control and 94 % of control | endpoint: mean survival time, dose: 31.3 mg/kg/injection, schedule: Q01DX001 (ip), vehicle: other 98 % of control and 112 % of control and 103 % of control | endpoint: mean survival time, dose: 31.3 mg/kg/injection, schedule: Q01DX001 (ip), vehicle: saline + alcohol 101 % of control | endpoint: mean survival time, dose: 50.0 mg/kg/injection, schedule: Q01DX009 (ip), vehicle: other 109 % of control and 94 % of control | endpoint: mean survival time, dose: 62.5 mg/kg/injection, schedule: Q01DX001 (ip), vehicle: other 98 % of control and 100 % of control and 103 % of control | endpoint: mean survival time, dose: 62.5 mg/kg/injection, schedule: Q01DX001 (ip), vehicle: saline + alcohol 94 % of control | endpoint: mean survival time, dose: 100.0 mg/kg/injection, schedule: Q01DX009 (ip), vehicle: other 115 % of control and 96 % of control | endpoint: mean survival time, dose: 125.0 mg/kg/injection, schedule: Q01DX001 (ip), vehicle: other 113 % of control and 108 % of control and 100 % of control | endpoint: mean survival time, dose: 125.0 mg/kg/injection, schedule: Q01DX001 (ip), vehicle: saline + alcohol 97 % of control | endpoint: mean survival time, dose: 200.0 mg/kg/injection, schedule: Q01DX009 (ip), vehicle: other 100 % of control | endpoint: mean survival time, dose: 250.0 mg/kg/injection, schedule: Q01DX001 (ip), vehicle: other 107 % of control and 100 % of control and 103 % of control | endpoint: mean survival time, dose: 250.0 mg/kg/injection, schedule: Q01DX001 (ip), vehicle: saline + alcohol 97 % of control | endpoint: mean survival time, dose: 500.0 mg/kg/injection, schedule: Q01DX001 (ip), vehicle: other 100 % of control and 103 % of control | endpoint: mean survival time, dose: 500.0 mg/kg/injection, schedule: Q01DX001 (ip), vehicle: saline + alcohol 91 % of control

Cc1ccc(/C=N/NC(=O)CNC(=O)Nc2cccc(C(F)(F)F)c2)cc1
inactive: endpoint: mean survival time, dose: 50.0 mg/kg/injection, schedule: Q01DX009 (ip), vehicle: saline with Tween-80 92 % of control | [5] 88 % of control | [6] 92 % of control

COc1ccc2c(c1)CCc1cn[nH]c1-2
inactive: endpoint: mean survival time, dose: 100.0 mg/kg/injection, schedule: Q01DX001 (ip), vehicle: saline 101 % of control | endpoint: mean survival time, dose: 100.0 mg/kg/injection, schedule: Q04DX003 (ip), vehicle: saline 106 % of control | endpoint: mean survival time, dose: 200.0 mg/kg/injection, schedule: Q01DX001 (ip), vehicle: saline 103 % of control | endpoint: mean survival time, dose: 200.0 mg/kg/injection, schedule: Q04DX003 (ip), vehicle: saline 106 % of control | endpoint: mean survival time, dose: 400.0 mg/kg/injection, schedule: Q01DX001 (ip), vehicle: saline 98 % of control | endpoint: mean survival time, dose: 400.0 mg/kg/injection, schedule: Q04DX003 (ip), vehicle: saline 100 % of control

CCc1ncc(C(O)c2ccc(Cl)cc2)n1Cc1ccccc1 (stereo unspecified)
inactive: [5] 92 % of control | [6] 95 % of control | [7] 92 % of control

Cc1ccc2ccccc2c1N(CC(=O)O)S(=O)(=O)c1ccccc1
inactive: [5] 103 % of control | [6] 101 % of control | [7] 88 % of control
